Tests used:
NLRP3 [1] = biological target: T1, NLRP3 (Homo sapiens, UniProt Q96P20); assay: Human whole blood IL1β release assay; type: cell-based; design: Plate out 80 μl of whole blood containing 1 μg/ml of LPS; from tissue; host or cells: human whole blood from healthy donors, LPS-primed, nigericin-stimulated; conditions: 1 μg/ml LPS, nigericin 10 μM, IL-1β by AlphaLisa, read-out: HWB IC50
Method: For systemic delivery, the ability to inhibit NLRP3 when the compounds are present within the bloodstream is of great importance. For this reason, the NLRP3 inhibitory activity of a number of compounds in human whole blood was investigated in accordance with the following protocol.
Human whole blood in Li-heparin tubes was obtained from healthy donors from a volunteer donor panel. • 1. Plate out 80 μl of whole blood containing 1 μg/ml of LPS in 96-well, clear bottom cell culture plate (Corning #3585) • 2. Add 10 μl compound (8 points half-log dilution with 10 μM top dose) or vehicle (DMSO 0.1% FAC) to the appropriate wells • 3. Incubate for 3 hrs at 37° C., 5% CO2 • 4. Add 10 μl Nigericin (Sigma #N7143) (10 μM FAC) to all wells • 5. Incubate for 1 hr at 37° C., 5% CO2 • 6. At the end of the incubation period, spin plates at 300×g for 5 mins to pellet cells and remove 20 μl of supernatant and add to 96-well v-bottom plates for IL-1β analysis (note: these plates containing the supernatants can be stored at −80° C. to be analysed at a later date) • 7. IL-1β was measured according to the manufacturer protocol (Perkin Elmer-AlphaLisa IL-1 Kit AL220F-5000) • 8. IC50 data is fitted to anon-linear regression equation (log inhibitor vs response-variable slope 4-parameters)

NLRP3 [2] = biological target: T1, NLRP3; assay: THP-1 cells pyroptosis assay; type: cell-based; design: Seed THP-1 cells (25,000 cells/well) containing 1.0 μg/ml LPS; host or cells: THP-1 cells, LPS-primed, nigericin-stimulated; conditions: 1.0 μg/ml LPS, nigericin 5 μM, resazurin readout
From the text: It is well established that the activation of NLRP3 leads to cell pyroptosis and this feature plays an important part in the manifestation of clinical disease (Yan-gang Liu et al., Cell Death & Disease, 2017, 8(2), e2579; Alexander Wree et al., Hepatology, 2014, 59(3), 898-910; Alex Baldwin et al., Journal of Medicinal Chemistry, 2016, 59(5), 1691-1710; Ema Ozaki et al., Journal of Inflammation Research, 2015, 8, 15-27; Zhen Xie & Gang Zhao, Neuroimmunology Neuroinflammation, 2014, 1(2), 60-65; Mattia Cocco et al., Journal of Medicinal Chemistry, 2014, 57(24), 10366-10382; T. Satoh et al., Cell Death & Disease, 2013, 4, e644). Therefore, it is anticipated that inhibitors of NLRP3 will block pyroptosis, as well as the release of pro-inflammatory cytokines (e.g. IL-1β) from the cell.
THP-1 cells (ATCC #TIB-202) were grown in RPMI containing L-glutamine (Gibco #11835) supplemented with 1 mM sodium pyruvate (Sigma #S8636) and penicillin (100 units/ml)/streptomycin (0.1 mg/ml) (Sigma #P4333) in 10% Fetal Bovine Serum (FBS) (Sigma #F0804). The cells were routinely passaged and grown to confluency (˜10^6 cells/ml). On the day of the experiment, THP-1 cells were harvested and resuspended into RPMI medium (without FBS). The cells were then counted and viability (>90%) checked by Trypan blue (Sigma #T8154). Appropriate dilutions were made to give a concentration of 625,000 cells/ml. To this diluted cell solution was added LPS (Sigma #L4524) to give a 1 μg/ml Final Assay Concentration (FAC). 40 μl of the final preparation was aliquoted into each well of a 96-well plate. The plate thus prepared was used for compound screening.
The following method step-by-step assay was followed for compound screening. • 1. Seed THP-1 cells (25,000 cells/well) containing 1.0 μg/ml LPS in 40 μl of RPMI medium (without FBS) in 96-well, black walled, clear bottom cell culture plates coated with poly-D-lysine (VWR #734-0317) • 2. Add […] compound (8 points half-log dilution, with 10 μM top dose) or vehicle (DMSO 0.1% FAC) to the appropriate wells • 3. Incubate for 3 hrs at 37° C. in 5% CO2 • 4. Add 5 μl nigericin (Sigma #N7143) (FAC 5 μM) to all wells • 5. Incubate for 1 hr at 37° C. and 5% CO2 • 6. At the end of the incubation period, spin plates at 300×g for 3 mins and remove supernatant • 7. Then add 50 μl of resazurin (Sigma #R7017) (FAC 100 μM resazurin in RPMI medium without FBS) and incubate plates for a further 1-2 hrs at 37° C. and 5% CO2 • 8. Plates were read in an Envision reader at Ex 560 nm and Em 590 nm • 9. IC50 data is fitted to a non-linear regression equation (log inhibitor vs response-variable slope 4-parameters)

T1 sequence (Q96P20 whole entry): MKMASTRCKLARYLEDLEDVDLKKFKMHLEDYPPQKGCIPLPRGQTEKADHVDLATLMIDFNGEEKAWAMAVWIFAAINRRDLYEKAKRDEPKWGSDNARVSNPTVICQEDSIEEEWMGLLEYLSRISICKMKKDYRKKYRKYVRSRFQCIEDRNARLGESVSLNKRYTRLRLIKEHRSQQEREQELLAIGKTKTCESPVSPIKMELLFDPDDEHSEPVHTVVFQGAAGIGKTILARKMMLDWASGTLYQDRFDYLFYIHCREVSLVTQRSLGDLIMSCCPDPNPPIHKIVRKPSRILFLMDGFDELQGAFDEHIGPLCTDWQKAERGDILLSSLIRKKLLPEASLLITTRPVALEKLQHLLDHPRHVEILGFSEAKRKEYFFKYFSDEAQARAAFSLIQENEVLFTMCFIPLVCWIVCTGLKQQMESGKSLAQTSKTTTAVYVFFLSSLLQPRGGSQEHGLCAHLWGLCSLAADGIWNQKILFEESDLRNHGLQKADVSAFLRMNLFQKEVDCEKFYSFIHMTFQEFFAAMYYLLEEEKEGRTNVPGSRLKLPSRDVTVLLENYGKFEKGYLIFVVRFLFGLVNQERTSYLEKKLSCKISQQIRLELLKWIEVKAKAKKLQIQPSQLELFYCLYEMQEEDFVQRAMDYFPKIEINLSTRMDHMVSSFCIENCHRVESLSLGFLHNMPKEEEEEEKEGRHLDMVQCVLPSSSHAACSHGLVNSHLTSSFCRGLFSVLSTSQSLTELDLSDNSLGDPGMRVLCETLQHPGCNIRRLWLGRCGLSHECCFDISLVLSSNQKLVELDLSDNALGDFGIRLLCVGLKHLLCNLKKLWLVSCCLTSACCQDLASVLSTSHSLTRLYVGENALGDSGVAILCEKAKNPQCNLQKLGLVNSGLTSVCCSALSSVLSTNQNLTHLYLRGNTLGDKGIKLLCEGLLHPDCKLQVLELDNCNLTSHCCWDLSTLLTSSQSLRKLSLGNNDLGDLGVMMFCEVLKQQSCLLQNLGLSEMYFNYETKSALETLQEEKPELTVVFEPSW

SMILES	IC50 (NLRP3 [1])	IC50 (NLRP3 [2])
COCCN(CCOC)C(=O)c1cc(S(=O)(=O)NC(=O)Nc2c3c(cc4c2CCC4)CCC3)nn1C [Example 26, 3-(N-((1,2,3,5,6,7-Hexahydro-s-indacen-4-yl)carbamoyl)sulfamoyl)-N,N-bis(2-methoxyethyl)-1-methyl-1H-pyrazole-5-carboxamide]	400 to 800 nM	40 to 160 nM
CC(C)c1cccc(C(C)C)c1NC(=O)NS(=O)(=O)c1cc(C(=O)N(C)C(C)C)n(C)n1 [Example 58, 3-(N-((2,6-Diisopropylphenyl)carbamoyl)sulfamoyl)-N-isopropyl-N,1-dimethyl-1H-pyrazole-5-carboxamide]	400 to 800 nM	160 to 640 nM
CN(CCCO)C(=O)c1cc(S(=O)(=O)NC(=O)Nc2c3c(cc4c2CCC4)CCC3)nn1C [Example 18, 3-(N-((1,2,3,5,6,7-Hexahydro-s-indacen-4-yl)carbamoyl)sulfamoyl)-N-(3-hydroxypropyl)-N,1-dimethyl-1H-pyrazole-5-carboxamide]	1600 to 3200 nM	160 to 640 nM
CNC(=O)c1cc(S(=O)(=O)NC(=O)Nc2c(C(C)C)cc(Cl)cc2C(C)C)nn1C [Example 32, 3-(N-((4-Chloro-2,6-diisopropylphenyl)carbamoyl)sulfamoyl)-N,1-dimethyl-1H-pyrazole-5-carboxamide]	1600 to 3200 nM	160 to 640 nM
Cn1nc(S(=O)(=O)NC(=O)Nc2c3c(cc4c2CCC4)CCC3)cc1C(=O)N(CCO)CCO [Example 15, 3-(N-((1,2,3,5,6,7-Hexahydro-s-indacen-4-yl)carbamoyl)sulfamoyl)-N,N-bis(2-hydroxyethyl)-1-methyl-1H-pyrazole-5-carboxamide]	< 400 nM	160 to 640 nM
CN(C(=O)c1cc(S(=O)(=O)NC(=O)Nc2c3c(cc4c2CCC4)CCC3)nn1C)C1CCC1 [Example 7, N-Cyclobutyl-3-(N-((1,2,3,5,6,7-hexahydro-s-indacen-4-yl)carbamoyl)sulfamoyl)-N,1-dimethyl-1H-pyrazole-5-carboxamide]	3200 to 10000 nM	160 to 640 nM
COCCN(CCOC)C(=O)c1cc(S(=O)(=O)NC(=O)Nc2c(-c3ccnc(OC)c3)ccc3c2CCC3)nn1C [Example 80, N,N-Bis(2-methoxyethyl)-3-(N-((5-(2-methoxypyridin-4-yl)-2,3-dihydro-1H-inden-4-yl)carbamoyl)sulfamoyl)-1-methyl-1H-pyrazole-5-carboxamide]	< 400 nM	160 to 640 nM
CCN(C)C(=O)c1cc(S(=O)(=O)NC(=O)Nc2c(C(C)C)cc(F)cc2C(C)C)nn1C [Example 49, N-Ethyl-3-(N-((4-fluoro-2,6-diisopropylphenyl)carbamoyl)sulfamoyl)-N,1-dimethyl-1H-pyrazole-5-carboxamide]	400 to 800 nM	160 to 640 nM
CC(C)c1cccc(C(C)C)c1NC(=O)NS(=O)(=O)c1cc(C(=O)N(C)C2CC2)n(C)n1 [Example 43, N-Cyclopropyl-3-(N-((2,6-diisopropylphenyl)carbamoyl)sulfamoyl)-N,1-dimethyl-1H-pyrazole-5-carboxamide]	800 to 1600 nM	40 to 160 nM
CNC(=O)c1cc(S(=O)(=O)NC(=O)Nc2c(C(C)C)cc(F)cc2C(C)C)nn1C [Example 50, 3-(N-((4-Fluoro-2,6-diisopropylphenyl)carbamoyl)sulfamoyl)-N,1-dimethyl-1H-pyrazole-5-carboxamide]	< 400 nM	160 to 640 nM
CC(C)c1cc(F)cc(C(C)C)c1NC(=O)NS(=O)(=O)c1cc(C(=O)N(C)C(C)C)n(C)n1 [Example 47, 3-(N-((4-Fluoro-2,6-diisopropylphenyl)carbamoyl)sulfamoyl)-N-isopropyl-N,1-dimethyl-1H-pyrazole-5-carboxamide]	400 to 800 nM	40 to 160 nM
CCN(CC)C(=O)c1cc(S(=O)(=O)NC(=O)Nc2c3c(cc4c2CCC4)CCC3)nn1C [Example 65, N,N-Diethyl-3-(N-((1,2,3,5,6,7-hexahydro-s-indacen-4-yl)carbamoyl)sulfamoyl)-1-methyl-1H-pyrazole-5-carboxamide]	800 to 1600 nM	40 to 160 nM
CN(C)C(=O)Cn1ccc(S(=O)(=O)NC(=O)Nc2c3c(cc4c2CCC4)CCC3)n1 [Example 1, 2-(3-(N-((1,2,3,5,6,7-Hexahydro-s-indacen-4-yl)carbamoyl)sulfamoyl)-1H-pyrazol-1-yl)-N,N-dimethylacetamide]	3200 to 10000 nM	160 to 640 nM
CNC(=O)c1cc(S(=O)(=O)NC(=O)Nc2c(C(C)C)cccc2C(C)C)nn1C [Example 55, 3-(N-((2,6-Diisopropylphenyl)carbamoyl)sulfamoyl)-N,1-dimethyl-1H-pyrazole-5-carboxamide]	400 to 800 nM	160 to 640 nM
CC(C)Oc1cc(-c2cc(F)cc(C(C)C)c2NC(=O)NS(=O)(=O)c2cc(C(=O)N(C)C)n(C)n2)ccn1 [Example 81, 3-(N-((4-Fluoro-2-(2-isopropoxypyridin-4-yl)-6-isopropyl-phenyl)carbamoyl)sulfamoyl)-N,N,1-trimethyl-1H-pyrazole-5-carboxamide]	1600 to 3200 nM	160 to 640 nM
CNC(=O)Cn1ccc(S(=O)(=O)NC(=O)Nc2c3c(cc4c2CCC4)CCC3)n1 [Example 2, 2-(3-(N-((1,2,3,5,6,7-Hexahydro-s-indacen-4-yl)carbamoyl)sulfamoyl)-1H-pyrazol-1-yl)-N-methylacetamide]	1600 to 3200 nM	160 to 640 nM
CC(C)c1cc(Cl)cc(C(C)C)c1NC(=O)NS(=O)(=O)c1cc(C(=O)N(C)CCO)n(C)n1 [Example 74, 3-(N-((4-Chloro-2,6-diisopropylphenyl)carbamoyl)sulfamoyl)-N-(2-hydroxyethyl)-N,1-dimethyl-1H-pyrazole-5-carboxamide]	800 to 1600 nM	40 to 160 nM
COCCN(CCOC)C(=O)c1cc(S(=O)(=O)NC(=O)Nc2c(-c3ccnc(OC(C)C)c3)cc(F)cc2C(C)C)nn1C [Example 79, 3-(N-((4-Fluoro-2-(2-isopropoxypyridin-4-yl)-6-isopropyl-phenyl)carbamoyl)sulfamoyl)-N,N-bis(2-methoxyethyl)-1-methyl-1H-pyrazole-5-carboxamide]	3200 to 10000 nM	2560 to 10000 nM
CC(C)c1cccc(C(C)C)c1NC(=O)NS(=O)(=O)c1cc(C(=O)N2CC(F)C2)n(C)n1 [Example 39, N-((2,6-Diisopropylphenyl)carbamoyl)-5-(3-fluoroazetidine-1-carbonyl)-1-methyl-1H-pyrazole-3-sulfonamide]	800 to 1600 nM	640 to 2560 nM

Reference: US20210122739A1, “NOVEL SULFONAMIDE CARBOXAMIDE COMPOUNDS” (Inflazome Limited, priority 2017, published 2021)
